Results published in patent publication US20050255493A1, “Molecular targeting of the IGF-1 receptor” (priority 2002, published 2005).

Experiments:
[1] = test system: DU145 cells; assay: Etoposide-induced apoptosis in DU145 cells (caspase 3/7 activation, annexin V staining); format: cell-based, human; settings: 200 nM, annexin staining and caspase 3/7 activation
Procedure: FIG. 13 illustrates the effect of siRNA R4 on apoptosis in prostate cancer cells. DU145 cells were transfected with 200 nM R4 or scrambled control, and after 48 hr were treated with etoposide or vehicle without drug. After overnight incubation at 37° C. the incidence of apoptosis was measured by caspase 3/7 activation assay (Promega; left panel), or by flow cytometry after staining with annexin V and propodium iodide (right panel).

[2] = test system: MDA-MB-231 cells; assay: Chemosensitisation of MDA-MB-231 cells to etoposide (clonogenic assay); format: cell-based, human; settings: 200 nM
Procedure: FIG. 14 illustrates chemosensitisation of MDA-MB-231 cells to etoposide. MDA-MB-231 cells were transfected with 200 nM siRNA R4 or scrambled control duplex, re-seeded the following day at 2000 cells/6 cm dish, and the following day treated overnight with etoposide at the indicated concentrations. Thereafter the drug was washed off, dishes were incubated for 1 week at 37° C., and visible colonies were stained and counted.

[3] = test system: IGF1R mRNA; assay: Oligonucleotide scanning array hybridisation with labelled transcript; format: binding, human; settings: scanning array, peak 4 region (FIG. 11B)
Procedure: Scanning arrays complementary to the region of the IGF1R mRNA from position 537-685 were prepared using the standard techniques described in Southern E. M. et al., Nucleic Acids Res., 1994, 22(8): 1368-1373; and Sohail, M. and Southern, E. M. “Using oligonucleotide scanning arrays to find effective antisense reagents”, Methods in Molecular Biology, vol. 170: DNA Arrays: Methods and Protocols, Ed J. B. Rampal, Humana Press Inc., Totowa, N.J.
The scanning arrays comprise sets of oligonucleotides of various lengths. A series of oligonucleotides, complementary to the target mRNA, is made by sequential coupling of nucleotides to a solid surface. The DNA synthesis reagents are applied to a confined area on the surface of the solid support using a mask. The mask is shifted along the surface after each round of coupling, resulting in a series of oligonucleotides each complementary to a region of the target sequence.
• 2. Remove 1 μL for quantitation (see below). • 3. Remove unincorporated label by Sephadex® G25 column chromatography (see Note 11). • 4. Save 1 μL of the purified transcript for quantitation (see below). • 5. Check the integrity of the transcript by denaturing polyacrylamide gel electrophoresis (10). • 6. Add 10 μL of the scintillation fluid to the samples saved in Steps 2 and 4. • 7. Mix by vortexing and count the samples in a scintillation counter for 1 min. • 8. Calculate the percent incorporation: [formula] • 9. Calculate the amount of RNA made: [formula] Hybridisation to Arrays Made on Polypropylene • 1. Place the array in the hybridisation tube, coiling it in a spiral. • 2. Dilute the radiolabelled transcript in an appropriate volume (10-20 mL depending upon the size of the array and the hybridisation tube) of hybridisation buffer. The mix should cover the array along the length of the tube. • 3. Place items 1 and 2 in the oven at desired temperature for 30 min. Also put approximately 100 mL of the hybridisation buffer in the oven: this is to be used to wash the array at the end of hybridisation. • 4. Pour the hybridisation mix into the tube containing the array and hybridise for 3-4 h. • 5. Remove the hybridisation mix. Briefly wash the array with the hybridisation buffer from Step 3, air dry, cover with cling film and expose to a storage phosphor screen for 16-20 h (see Note 12). • 6. Scan the screen on PhosphorImager or STORM and analyse the image using xvseq (see below). Hybridisation to Arrays Made on Glass • 1. Clean the non-array glass plate with acetone and ethanol to ensure it is grease-free and siliconise it by treatment with dimethyl dichlorosilane solution and place it in lidded box. Also place moist paper towel in the box. • 2. Dilute the radiolabelled transcript in an appropriate volume of the hybridisation buffer (for example, for an array of 250 mm×50 mm use 500-750 μL). • 3. Place items 1 and 2 in an incubator at desired temprature for 30 min. Also put approximately 100 mL of the hybridisation buffer in the oven: this is to be used to wash the array at the end of hybridisation. • 4. Using a micropipette, pipette the hybridisation mix in a line evenly along the length of the non-array glass plate, avoiding formation of air bubbles. • 5. Starting at one end, carefully place the scanning array (face down) on top of the hybridisation mix. The mix will spread out and form a thin film between the two plates. Incubate for 3-4 h. • 6. Separate the plates from each other and wash the array plate with hybridisation buffer to remove unbound mix. Drain the plate, air dry, cover with cling film and expose to a storage phosphor screen for 16-20 h. • 7. Scan the screen on PhosphorImager or STORM and analyse the image using xvseq (see below). Alternative Hybridisation Protocol for Glass or Polypropylene • 1. Assemble with clips the array plate (or polypropylene array pasted with PhotoMount™ on a glass plate) and the non-array plate, using rubber tubing as spacers on two sides. • 2. […]

For “R4: RNAi duplex CAAUGAGUACAACUACCGCTT / TTGUUACUCAUGUUGAUGGCG, SEQ ID NO:30 (CAAUGAGUACAACUACCGCNN; second strand not cited, chemistry not fully specified)”, the “Etoposide-induced apoptosis” value [1] was “enhanced etoposide-induced apoptosis”, the “Sensitivity to etoposide by clonogenic assay” value [2] was “significantly enhanced” and the “Difference in hybridization intensity between the 19mer ASOs equivalent to R4 and R5” value [3] was ~6.5 fold.
